Assay type: physicochemical
Protocol: The solubility of B4MP-TIPS-An, which was synthesized in Example 1, was measured in various solvents at room temperature. This small molecule semiconductor had moderate solubility in n-butylbenzene (about 1.0 weight percent) and good solubility in dichlorobenzene (greater than 6.0 weight percent) and xylene (about 3.5 weight percent). The weight percent is based on the total solution weight.

COc1ccc(-c2ccc3c(C#C[Si](C(C)C)(C(C)C)C(C)C)c4cc(-c5ccc(OC)cc5)ccc4c(C#C[Si](C(C)C)(C(C)C)C(C)C)c3c2)cc1 [Example B4MP-TIPS-An, 2,6-Bis(4-methoxy-phenyl)-9,10-bis-[(triisopropylsilyl)ethynyl]anthracene]
solubility in dichlorobenzene: greater than 6.0 weight percent | solubility in n-butylbenzene: about 1.0 weight percent | solubility in xylene: about 3.5 weight percent
